These results are taken from US20230024302A1, “2,3,5-TRISUBSTITUTED PYRAZOLO[1,5-A]PYRIMIDINE COMPOUNDS” (Arcus Biosciences, Inc., priority 2019, published 2023).

Where two headings read alike, the source gives them in different places. Bounds are passed on as bounds.

One test deals with T1, PI3Kγ (p120γ) (Homo sapiens, UniProt P48736).
T1 construct: purchased Promega V1761
The test is described as follows: Inhibition of PI3K kinase activity (ADP Glo), PI3Kγ. As to conditions: read-out: biochemical potency (PI3Kγ IC50). In short, it runs like this: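 IC50 values come from a 4-parameter nonlinear fit of ADP-Glo luminescence, which measures ADP produced as PIP2 is phosphorylated to PIP3. The p120γ enzyme (2× stock 8 nM) sat with compound 1 h at rt before substrate (2× stocks: 50 μM ATP, 0.1 mg/ml PIP2) was added. Phosphorylation then proceeded 60 min at rt.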

The target of the next test is T2, PI3Kγ (Homo sapiens, UniProt P48736).
T2 construct: host or cells: THP-1
T2 sequence (P48736 whole entry): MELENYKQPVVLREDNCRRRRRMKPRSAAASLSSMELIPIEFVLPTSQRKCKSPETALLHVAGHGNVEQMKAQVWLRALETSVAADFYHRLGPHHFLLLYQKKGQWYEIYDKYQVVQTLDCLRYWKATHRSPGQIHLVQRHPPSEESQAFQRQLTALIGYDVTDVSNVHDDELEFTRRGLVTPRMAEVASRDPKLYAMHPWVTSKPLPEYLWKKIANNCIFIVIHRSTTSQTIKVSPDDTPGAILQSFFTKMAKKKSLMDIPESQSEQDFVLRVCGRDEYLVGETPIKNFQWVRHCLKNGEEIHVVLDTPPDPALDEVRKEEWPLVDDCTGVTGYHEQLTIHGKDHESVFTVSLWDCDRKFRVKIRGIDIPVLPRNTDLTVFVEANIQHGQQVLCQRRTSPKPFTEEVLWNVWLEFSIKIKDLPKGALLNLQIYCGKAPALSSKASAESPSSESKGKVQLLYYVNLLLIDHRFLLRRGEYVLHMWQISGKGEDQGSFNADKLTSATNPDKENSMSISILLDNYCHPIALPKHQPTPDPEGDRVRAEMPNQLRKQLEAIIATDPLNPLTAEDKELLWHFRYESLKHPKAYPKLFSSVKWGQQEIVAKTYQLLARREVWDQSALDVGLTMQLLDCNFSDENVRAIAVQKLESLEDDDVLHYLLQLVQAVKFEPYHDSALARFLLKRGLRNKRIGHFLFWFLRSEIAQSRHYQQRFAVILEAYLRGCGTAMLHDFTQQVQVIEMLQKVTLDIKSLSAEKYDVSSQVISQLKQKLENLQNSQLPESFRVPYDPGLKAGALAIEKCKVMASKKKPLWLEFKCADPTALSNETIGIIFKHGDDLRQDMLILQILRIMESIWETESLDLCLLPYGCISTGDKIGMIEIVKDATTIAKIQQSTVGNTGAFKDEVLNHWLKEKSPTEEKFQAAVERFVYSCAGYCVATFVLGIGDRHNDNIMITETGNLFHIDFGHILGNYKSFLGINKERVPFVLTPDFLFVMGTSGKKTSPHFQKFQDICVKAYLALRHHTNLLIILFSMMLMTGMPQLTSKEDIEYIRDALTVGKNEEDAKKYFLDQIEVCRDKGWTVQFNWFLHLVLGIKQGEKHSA
The test is described as follows: PI3Kγ cellular assay in THP-1 cells (AKT pS473 AlphaLISA). In kind it is cell-based. In short, it runs like this: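 Endogenous AKT S473 phosphorylation, detected by AlphaLISA in lysates, serves as the PI3Kγ activity read-out in stimulated, serum-starved THP-1 cells (1.8×10^5/well).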
On the technique in general: Bead proximity is the source of the signal in Alpha formats.

[1] abbreviates: Table 2, rhMCP-1 stimulated AKT pS473, read-out: cellular potency (PI3Kγ IC50).
The mark [2] stands for this setting: Table 3, rhMCP-1 stimulated AKT pS473, read-out: cellular potency (PI3Kγ IC50).
[3] abbreviates: Table 1, rhMCP-1 stimulated AKT pS473, read-out: cellular potency (PI3Kγ IC50).
Where [4] appears, read: AKT pS473, read-out: cellular potency (PI3Kγ IC50).
Setting [5] is: Table 6, rhMCP-1 stimulated AKT pS473, read-out: cellular potency (PI3Kγ IC50).

T1 sequence (P48736 whole entry): as above

The IC50 is the concentration that gives 50% inhibition. Turning to `Cc1cc(-c2ccn3nc(N)c(C(=O)N[C@@H]4c5ccccc5C[C@H]4O)c3n2)cc2c1C(=O)N([C@@H](C)C1CC1)C2` [Example 198], the IC50 was below 100 nM on PI3Kγ (p120γ) (Table 2, p120γ) and 100 to 1000 nM on PI3Kγ (setting [1]).

Regarding `C[C@@H](C1CC1)N1Cc2cc(-c3ccn4nc(N)c(C(=O)N[C@H]5CCCNC5)c4n3)cc(C(F)(F)F)c2C1=O` [Example 356], the IC50 on PI3Kγ (p120γ) (Table 3, p120γ) was below 100 nM; on PI3Kγ (setting [2]), 100 to 1000 nM.

As for `CC[C@H](C)N1Cc2cc(-c3ccn4nc(N)c(C(=O)NC5CC5)c4n3)cc(C)c2C1=O` [Example 302], the IC50 on PI3Kγ (p120γ) (Table 2, p120γ) is below 100 nM; on PI3Kγ (setting [1]) it was 100 to 1000 nM.

`C[C@@H](C1CC1)N1Cc2cc(-c3ccn4nc(N)c(C(=O)N[C@H]5CC[C@@](C)(O)CC5)c4n3)cc(NS(C)(=O)=O)c2C1=O` [Example 89, 2-Amino-5-{2-[(1S)-1-cyclopropylethyl]-7-methanesulfonamido-1-oxo-2,3-dihydro-1H-isoindol-5-yl}-N-[cis-4-hydroxy-4-methylcyclohexyl]pyrazolo[1,5-a]pyrimidine-3-carboxamide]: the half-maximal inhibitory concentration (IC50) was below 100 nM at PI3Kγ (p120γ) (Table 1, p120γ) and below 100 nM on PI3Kγ (setting [3]).

Regarding `C[C@H](N1Cc2cc(-c3ccn4nc(N)c(C(=O)Nc5cccnc5)c4n3)cc(NS(C)(=O)=O)c2C1=O)C(F)(F)F` [Example 401], the IC50 is below 100 nM on PI3Kγ (p120γ) and 100 to 1000 nM on PI3Kγ (setting [4]).

On to `Nc1nn2ccc(-c3cc4c(c(C(F)(F)F)c3)C(=O)N([C@@H](CO)C3CC3)C4)nc2c1C(=O)NC1CC1` [Example 340], for which the IC50 was below 100 nM on PI3Kγ (p120γ) (Table 3, p120γ) and 100 to 1000 nM on PI3Kγ (setting [2]).

`C[C@H](CO)NC(=O)c1c(N)nn2ccc(-c3cc4c(c(C5CC5)c3)C(=O)N([C@@H](C)C3CC3)C4)nc12` [Example 166, 2-Amino-5-{7-cyclopropyl-2-[(1S)-1-cyclopropylethyl]-1-oxo-2,3-dihydro-1H-isoindol-5-yl}-N-[(2R)-1-hydroxypropan-2-yl]pyrazolo[1,5-a]pyrimidine-3-carboxamide]: the IC50 at PI3Kγ (p120γ) (Table 1, p120γ) was below 100 nM; on PI3Kγ (setting [3]) it was below 100 nM.

As to `Cc1cc(-c2ccn3nc(N)c(C(=O)N[C@@H](C)c4nccs4)c3n2)cc2c1C(=O)N([C@@H](C)C1CC1)C2` [Example 178], the IC50 was below 100 nM at PI3Kγ (p120γ) (Table 2, p120γ) and 100 to 1000 nM at PI3Kγ (setting [1]).

With `C[C@@H](C1CC1)N1Cc2cc(-c3ccn4nc(N)c(C(=O)N[C@H]5CC[C@H](CO)CC5)c4n3)cc(C(F)(F)F)c2C1=O` [Example 60, 2-Amino-5-(2-((S)-1-cyclopropylethyl)-1-oxo-7-(trifluoromethyl)isoindolin-5-yl)-N-(trans-4-(hydroxymethyl)cyclohexyl)pyrazolo[1,5-a]pyrimidine-3-carboxamide], the 50% inhibitory concentration (IC50) was below 100 nM at PI3Kγ (p120γ) (Table 1, p120γ) and below 100 nM at PI3Kγ (setting [3]).

With `C[C@@H](C1CC1)N1Cc2cc(-c3ccn4nc(N)c(C(=O)Nc5cccnc5)c4n3)cc(C(F)(F)F)c2C1=O` [Example 70, (S)-2-Amino-5-(2-(1-cyclopropylethyl)-1-oxo-7-(trifluoromethyl)isoindolin-5-yl)-N-(pyridin-3-yl)pyrazolo[1,5-a]pyrimidine-3-carboxamide], the IC50 was below 100 nM on PI3Kγ (p120γ) (Table 1, p120γ) and below 100 nM on PI3Kγ (setting [3]).

Take `CO[C@H]1C[C@H](NC(=O)c2c(N)nn3ccc(-c4cc5c(c(NS(C)(=O)=O)c4)C(=O)N([C@@H](C)C4CC4)C5)nc23)C1` [Example 84, 2-Amino-5-{2-[(1S)-1-cyclopropylethyl]-7-methanesulfonamido-1-oxo-2,3-dihydro-1H-isoindol-5-yl}-N-[trans-3-methoxycyclobutyl]pyrazolo[1,5-a]pyrimidine-3-carboxamide]: the IC50 is below 100 nM at PI3Kγ (p120γ) (Table 1, p120γ) and below 100 nM on PI3Kγ (setting [3]).

`Cc1cc(-c2ccn3nc(N)c(C(=O)NC[C@H]4C[C@H](O)C4)c3n2)cc2c1C(=O)N([C@@H](C)C1CC1)C2` [Example 4]: the IC50 is below 100 nM on PI3Kγ (p120γ) (Table 1, p120γ) and below 100 nM at PI3Kγ (setting [3]).

For `Cc1cc(-c2ccn3nc(N)c(C(=O)N[C@@H]4CCNC4)c3n2)cc2c1C(=O)N([C@@H](C)C1CC1)C2` [Example 218], the IC50 was below 100 nM at PI3Kγ (p120γ) (Table 2, p120γ) and 100 to 1000 nM at PI3Kγ (setting [1]).

Take `C[C@H](N1Cc2cc(-c3ccn4nc(N)c(C(=O)NC5CC5)c4n3)cc(OC(F)(F)F)c2C1=O)C(F)(F)F` [Example 415]: the IC50 was below 100 nM on PI3Kγ (p120γ) (Table 6, p120γ) and 100 to 1000 nM at PI3Kγ (setting [5]).

As to `C[C@@H](C1CC1)N1Cc2cc(-c3ccn4nc(N)c(C(=O)N[C@H]5CC[C@H](C6(O)CC6)CC5)c4n3)cc(OC(F)(F)F)c2C1=O` [Example 30, 2-Amino-5-(2-((S)-1-cyclopropylethyl)-1-oxo-7-(trifluoromethoxy)isoindolin-5-yl)-N-(trans-4-(1-hydroxycyclopropyl)cyclohexyl)pyrazolo[1,5-a]pyrimidine-3-carboxamide], the concentration for half-maximal inhibition (IC50) at PI3Kγ (p120γ) (Table 1, p120γ) was below 100 nM; on PI3Kγ (setting [3]), below 100 nM.

In the case of `C[C@@H](C1CC1)N1Cc2cc(-c3ccn4nc(N)c(C(=O)NC5CC5c5ccccc5)c4n3)cc(C(F)(F)F)c2C1=O` (stereo partly shown) [Example 365], the concentration for half-maximal inhibition (IC50) was below 100 nM on PI3Kγ (p120γ) (Table 3, p120γ) and 100 to 1000 nM on PI3Kγ (setting [2]).

`C[C@@H](C1CC1)N1Cc2cc(-c3ccn4nc(N)c(C(=O)N[C@@H]5CCC(=O)NC5)c4n3)cc(OC(F)(F)F)c2C1=O` [Example 412]: the IC50 was below 100 nM at PI3Kγ (p120γ) (Table 6, p120γ) and 100 to 1000 nM on PI3Kγ (setting [5]).

Take `Cc1cc(-c2ccn3nc(N)c(C(=O)N[C@H]4CC[C@](C)(O)CC4)c3n2)cc2c1C(=O)N([C@@H](C)C1CC1)C2` [Example 7, 2-Amino-5-{2-[(1S)-1-cyclopropylethyl]-7-methyl-1-oxo-2,3-dihydro-1H-isoindol-5-yl}-N-[trans-4-hydroxy-4-methylcyclohexyl]pyrazolo[1,5-a]pyrimidine-3-carboxamide]: the IC50 at PI3Kγ (p120γ) (Table 1, p120γ) was below 100 nM; on PI3Kγ (setting [3]), below 100 nM.

As to `Cc1csc(NC(=O)c2c(N)nn3ccc(-c4cc(C)c5c(c4)CN([C@@H](C)C4CC4)C5=O)nc23)n1` [Example 300], the concentration for half-maximal inhibition (IC50) is below 100 nM on PI3Kγ (p120γ) (Table 2, p120γ) and above 1000 nM at PI3Kγ (setting [1]).

As for `Cc1cc(-c2ccn3nc(N)c(C(=O)N[C@H]4C[C@H](CO)C4)c3n2)cc2c1C(=O)N([C@@H](C)C1CC1)C2` [Example 12, 2-Amino-5-{2-[(1S)-1-cyclopropylethyl]-7-methyl-1-oxo-2,3-dihydro-1H-isoindol-5-yl}-N-[trans-3-(hydroxymethyl)cyclobutyl]pyrazolo[1,5-a]pyrimidine-3-carboxamide], the IC50 at PI3Kγ (p120γ) (Table 1, p120γ) was below 100 nM; at PI3Kγ (setting [3]) it was below 100 nM.

For `C[C@@H](C1CC1)N1Cc2cc(-c3ccn4nc(N)c(C(=O)Nc5cnn(C)c5)c4n3)cc(S(C)(=O)=O)c2C1=O` [Example 130, 2-Amino-5-{2-[(1S)-1-cyclopropylethyl]-7-methanesulfonyl-1-oxo-2,3-dihydro-1H-isoindol-5-yl}-N-(1-methyl-1H-pyrazol-4-yl)pyrazolo[1,5-a]pyrimidine-3-carboxamide], the concentration for half-maximal inhibition (IC50) is below 100 nM at PI3Kγ (p120γ) (Table 1, p120γ) and below 100 nM on PI3Kγ (setting [3]).

With `C[C@H](N1Cc2cc(-c3ccn4nc(N)c(C(=O)Nc5ccccc5)c4n3)cc(NS(C)(=O)=O)c2C1=O)C(F)(F)F` [Example 403], the half-maximal inhibitory concentration (IC50) on PI3Kγ (p120γ) is below 100 nM; at PI3Kγ (setting [4]) it was 100 to 1000 nM.

Regarding `Cc1cc(-c2ccn3nc(N)c(C(=O)Nc4cnn(C)c4F)c3n2)cc2c1C(=O)N([C@@H](C)C1CC1)C2` [Example 296], the IC50 at PI3Kγ (p120γ) (Table 2, p120γ) was below 100 nM; at PI3Kγ (setting [1]) it was 100 to 1000 nM.

`Cc1cc(-c2ccn3nc(N)c(C(=O)N[C@H]4CC[C@@H](O)C4)c3n2)cc2c1C(=O)N([C@@H](C)C1CC1)C2` [Example 239]: the IC50 at PI3Kγ (p120γ) (Table 2, p120γ) was below 100 nM; at PI3Kγ (setting [1]), 100 to 1000 nM.

Take `C[C@@H](C1CC1)N1Cc2cc(-c3ccn4nc(N)c(C(=O)Nc5ccc(CO)cc5)c4n3)cc(NS(C)(=O)=O)c2C1=O` [Example 105, 2-Amino-5-{2-[(1S)-1-cyclopropylethyl]-7-methanesulfonamido-1-oxo-2,3-dihydro-1H-isoindol-5-yl}-N-[4-(hydroxymethyl)phenyl]pyrazolo[1,5-a]pyrimidine-3-carboxamide]: the half-maximal inhibitory concentration (IC50) at PI3Kγ (p120γ) (Table 1, p120γ) was below 100 nM; on PI3Kγ (setting [3]), below 100 nM.

Turning to `Cc1cc(-c2ccn3nc(N)c(C(=O)NC4(C)CC4)c3n2)cc2c1C(=O)N([C@@H](C)C1CC1)C2` [Example 242], the half-inhibitory concentration (IC50) is below 100 nM at PI3Kγ (p120γ) (Table 2, p120γ) and 100 to 1000 nM on PI3Kγ (setting [1]).

`Cc1ncccc1NC(=O)c1c(N)nn2ccc(-c3cc4c(c(OC(F)(F)F)c3)C(=O)N([C@@H](C)C3CC3)C4)nc12` [Example 44, 2-[(S)-1-Cyclopropylethyl]-5-{2-amino-3-[(2-methyl-3-pyridylamino)carbonyl]-1,4,7a-triaza-5-indenyl}-7-trifluoromethoxy-1-isoindolinone]: the IC50 on PI3Kγ (p120γ) (Table 1, p120γ) was below 100 nM; at PI3Kγ (setting [3]) it was below 100 nM.

Turning to `C[C@H](N1Cc2cc(-c3ccn4nc(N)c(C(=O)N[C@@H](CO)C5CC5)c4n3)cc(N3CC[C@@H](O)C3)c2C1=O)C(F)(F)F` [Example 434], the 50% inhibitory concentration (IC50) on PI3Kγ (p120γ) (Table 6, p120γ) was below 100 nM; at PI3Kγ (setting [5]), 100 to 1000 nM.

For the compound `Cc1cc(NC(=O)c2c(N)nn3ccc(-c4cc5c(c(NS(C)(=O)=O)c4)C(=O)N([C@@H](C)C4CC4)C5)nc23)ccn1` [Example 101, (S)-2-Amino-5-(2-(1-cyclopropylethyl)-7-(methylsulfonamido)-1-oxoisoindolin-5-yl)-N-(2-methylpyridin-4-yl)pyrazolo[1,5-a]pyrimidine-3-carboxamide], the IC50 at PI3Kγ (p120γ) (Table 1, p120γ) is below 100 nM; on PI3Kγ (setting [3]), below 100 nM.
